Data published in ChEMBL document CHEMBL2429789, “Discovery, Design, and Optimization of Isoxazole Azepine BET Inhibitors” (ACS Med Chem Lett, 2013).
Active and inactive are the calls of the source. The calls are words filed in the database; no cut-off is given here.

Legend:
[1] = target: T1, Bromodomain-containing protein 4 (Homo sapiens, UniProt O60885); assay: Inhibition of His-FLAG-tagged BRD4 binding domain1 (unknown origin) binding to H4-TetraAc-biotin peptide after 20 mins by AlphaLISA
[2] = target: T1, Bromodomain-containing protein 4; assay: Inhibition of BRD4 in human Raji cells assessed as reduction of MYC expression after 4 hrs; format: cell-based
Plasma = assay: Stability of the compound in rat plasma; format: ADME, cell-free
[3] = Plasma protein binding in human; format: ADME, cell-free; details: read-out: PPB (converted)
CYP3A4 = CYP3A4 (Homo sapiens, UniProt P08684); assay: Inhibition of CYP3A4 (unknown origin) at 10 uM; format: ADME
CYP3A4, sequence (P08684 whole entry): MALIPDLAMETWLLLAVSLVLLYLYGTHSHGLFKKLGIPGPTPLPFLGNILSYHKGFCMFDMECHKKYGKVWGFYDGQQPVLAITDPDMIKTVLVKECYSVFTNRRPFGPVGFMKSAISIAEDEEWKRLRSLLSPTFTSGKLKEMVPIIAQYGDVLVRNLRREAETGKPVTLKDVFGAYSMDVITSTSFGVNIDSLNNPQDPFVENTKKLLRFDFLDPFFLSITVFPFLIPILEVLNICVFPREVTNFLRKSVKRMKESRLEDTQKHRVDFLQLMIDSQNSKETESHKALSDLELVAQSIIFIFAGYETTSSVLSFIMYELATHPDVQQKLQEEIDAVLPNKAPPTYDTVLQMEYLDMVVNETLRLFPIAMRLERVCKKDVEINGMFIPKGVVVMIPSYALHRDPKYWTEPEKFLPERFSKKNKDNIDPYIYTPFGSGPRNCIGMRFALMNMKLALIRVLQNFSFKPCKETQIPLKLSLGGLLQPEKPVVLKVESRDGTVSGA

[4] = Intrinsic clearance in rat liver microsomes; format: ADME, Microsome; details: read-out: CLH
[5] = Intrinsic clearance in human liver microsomes; format: ADME, Microsome; details: read-out: CLH
[6] = Oral bioavailability in rat at 5 mg/kg; format: ADME, organism-based; details: in vivo
[7] = AUC in rat at 5 mg/kg, po; format: ADME, organism-based; parameters: dose 5 mg/kg, route oral; details: plasma
[8] = Volume of distribution at steady state in rat at 1 mg/kg, iv; format: ADME, organism-based; parameters: dose 1 mg/kg, route intravenous; details: in vivo, read-out: Vdss
[9] = Half life in rat at 1 mg/kg, iv; format: ADME, organism-based; parameters: dose 1 mg/kg, route intravenous; details: in vivo
Rattus norvegicus = assay: […] clearance in rat at 1 mg/kg, iv; format: ADME, organism-based; parameters: dose 1 mg/kg, route intravenous; details: in vivo
Mus musculus [10] = assay: Inhibition of MYC expression in tumor of NOD/SCID Harlan mouse xenografted with human Raji cells at 100 mg/kg, po after 8 hrs relative to control; format: functional, organism-based; parameters: dose 100 mg/kg
[11] = Drug uptake in tumor of NOD/SCID Harlan mouse xenografted with human Raji cells at 100 mg/kg, po; format: ADME, organism-based, Neoplasm; parameters: dose 100 mg/kg, route oral; details: in vivo, read-out: Drug uptake
Mus musculus [12] = assay: Inhibition of MYC expression in tumor of NOD/SCID Harlan mouse xenografted with human Raji cells at 100 mg/kg, po up to 8 hrs; format: functional, organism-based; parameters: dose 100 mg/kg
Mus musculus [13] = assay: Inhibition in MYC expression in tumor of NOD/SCID Harlan mouse xenografted with human Raji cells at 100 mg/kg, po after 4 hrs; format: functional
Mus musculus [14] = assay: Inhibition in MYC expression in tumor of NOD/SCID Harlan mouse xenografted with human Raji cells at 100 mg/kg, po; format: functional, organism-based; parameters: dose 100 mg/kg
Mus musculus [15] = assay: Inhibition in MYC expression in tumor of po dosed NOD/SCID Harlan mouse xenografted with human Raji cells; format: functional, organism-based
[16] = AUC in mouse at 5 mg/kg, po; format: ADME, organism-based; parameters: dose 5 mg/kg, route oral; details: plasma
[17] = Half life in dog at 1 mg/kg, iv; format: ADME, organism-based, Canis lupus familiaris; parameters: dose 1 mg/kg, route intravenous; details: in vivo
[18] = Volume of distribution at steady state in dog at 1 mg/kg, iv; format: ADME, organism-based, Canis lupus familiaris; parameters: dose 1 mg/kg, route intravenous; details: in vivo, read-out: Vdss
Canis familiaris = assay: Intrinsic clearance in dog at 1 mg/kg, iv; format: ADME, organism-based, Canis lupus familiaris; parameters: dose 1 mg/kg, route intravenous; details: in vivo
[19] = Plasma protein binding in rat; format: ADME, cell-free; details: read-out: PPB (converted)
[20] = Plasma protein binding in mouse; format: ADME, cell-free; details: read-out: PPB (converted)
[21] = Intrinsic clearance in dog liver microsomes; format: ADME, Canis lupus familiaris, Microsome; details: read-out: CLH
[22] = Intrinsic clearance in mouse liver microsomes; format: ADME, Microsome; details: read-out: CLH

Work on `Cc1noc2c1-c1sc(C)c(C)c1C(c1cncnc1)=N[C@H]2CC(N)=O` yielded an IC50 [1] of 2500 nM.
With `CCCC1=N[C@@H](CC(N)=O)c2onc(C)c2-c2sc(C)c(C)c21` the IC50 [2] was 1500 nM and the IC50 [1] was 300 nM.
`CCNC(=O)C[C@@H]1N=C(c2ccc(Cl)cc2)c2c(sc(C)c2C)-c2c(C)noc21` gave an IC50 [2] of 320 nM and an IC50 [1] of 36 nM.
In the case of `Cc1noc2c1-c1sc(C)c(C)c1C(c1ccccc1)=N[C@H]2CC(N)=O`, the Stability (Plasma) is reported as “Unstable”, the fraction unbound [3] is reported as 0.018 and the inhibition at 10 µM (CYP3A4) is reported as 1%. For the same compound, the microsomal CLint [4] was 160 µL/min/mg, the microsomal CLint [5] was 2.4 µL/min/mg and the IC50 [2] was 180 nM. For the same compound, the IC50 [1] was 29 nM.
`COC(=O)NC[C@@H]1N=C(c2ccc(Cl)cc2)c2c(sc(C)c2C)-c2c(C)noc21` gave an IC50 [2] of 1900 nM and an IC50 [1] of 86 nM.
With `Cc1noc2c1-c1sc(C)c(C)c1C(c1cccc(Cl)c1)=N[C@H]2CC(N)=O` the IC50 [2] was 470 nM and the IC50 [1] was 74 nM.
In the case of `Cc1noc2c1-c1sc(C)c(C)c1C(c1ccc(Cl)cc1)=N[C@H]2Cc1ncc[nH]1`, the IC50 [2] is reported as 3600 nM and the IC50 [1] is reported as 200 nM.
Work on `Cc1noc2c1-c1sc(C)c(C)c1C(C1CCOCC1)=N[C@H]2CC(N)=O` yielded an IC50 [1] of 6200 nM.
In the case of `Cc1noc2c1-c1sc(C)c(C)c1C(N1CCOCC1)=N[C@H]2CC(N)=O`, the IC50 [1] is reported as 1100 nM.
In the case of `Cc1noc2c1-c1sc(C)c(C)c1C(c1ccc(C#N)cc1)=N[C@H]2CC(N)=O`, the Stability (Plasma) is reported as “Unstable”, the bioavailability [6] is reported as 44% and the AUC [7] is reported as 504 ng·h/mL. It also gave a Vd [8] of 2.22 L/kg, a half-life [9] of 0.393 h and a CL (Rattus norvegicus) of 72.5 mL/min/kg. For the same compound, the fraction unbound [3] was 0.041, the inhibition at 10 µM (CYP3A4) was 0% and the microsomal CLint [4] was 8.9 µL/min/mg. For the same compound, the microsomal CLint [5] was 4.6 µL/min/mg, the IC50 [2] was 91 nM and the IC50 [1] was 33 nM.
`CC(=O)NC[C@@H]1N=C(c2ccc(Cl)cc2)c2c(sc(C)c2C)-c2c(C)noc21` gave an IC50 [2] of 2200 nM and an IC50 [1] of 190 nM.
Work on `Cc1noc(N)c1-c1ccccc1` yielded an IC50 [1] of 33000 nM.
Compound `Cc1noc2c1-c1sc(C)c(C)c1C(c1ccc(Cl)cc1)=N[C@H]2CC(=O)OC(C)(C)C` has an IC50 [2] of 2100 nM and an IC50 [1] of 290 nM.
`Cc1noc2c1-c1sc(C)c(C)c1C(c1ccccc1Cl)=N[C@H]2CC(N)=O` showed an IC50 [2] of 1900 nM and an IC50 [1] of 250 nM.
`Cc1cc(Cl)ccc1C1=N[C@@H](CC(N)=O)c2onc(C)c2-c2sc(C)c(C)c21` showed an IC50 [2] of 160 nM and an IC50 [1] of 42 nM.
With `Cc1noc2c1-c1sc(C)c(C)c1C(c1ccc(Cl)cc1)=N[C@H]2Cc1nccs1` the IC50 [2] was 2100 nM and the IC50 [1] was 190 nM.
For `Cc1noc2c1-c1sc(C)c(C)c1C(Cc1ccccc1)=N[C@H]2CC(N)=O`, the IC50 [1] was 5700 nM.
For `Cc1noc2c1-c1sc(C)c(C)c1C(c1ccc(Cl)cc1)=N[C@H]2CC(N)=O`, the inhibition (Mus musculus [10]) was “inactive”, the concentration [11] was 5 µM and the inhibition (Mus musculus [12]) was “Active”. The inhibition in vivo at 100 mg/kg (Mus musculus [13]) was 75%, the inhibition (Mus musculus [14]) was “Active” and the inhibition (Mus musculus [15]) was “Dose-dependent effect”. It also gave a bioavailability [6] of 31%, an AUC [7] of 605 ng·h/mL and an AUC [16] of 723 ng·h/mL. The half-life [17] was 3 h, the Vd [8] was 2.45 L/kg and the Vd [18] was 1.27 L/kg. For the same compound, the half-life [9] was 1.39 h, the CL (Rattus norvegicus) was 46.2 mL/min/kg and the CL (Canis familiaris) was 5.33 mL/min/kg. For the same compound, the fraction unbound [3] was 0.006, the inhibition at 10 µM (CYP3A4) was 20% and the fraction unbound [19] was 0.008. For the same compound, the fraction unbound [20] was 0.019, the microsomal CLint [4] was 27 µL/min/mg and the microsomal CLint [21] was 11 µL/min/mg. For the same compound, the microsomal CLint [5] was 5.5 µL/min/mg, the IC50 [2] was 140 nM and the microsomal CLint [22] was 140 µL/min/mg. For the same compound, the IC50 [1] was 26 nM.
Compound `CCNC(=O)C[C@H]1N=C(c2ccc(Cl)cc2)c2c(sc(C)c2C)-c2c(C)noc21` has an IC50 [1] of 2100 nM.
`Cc1noc2c1-c1sc(C)c(C)c1C(c1ccc(C#N)cc1)=N[C@H]2[C@@H](C)C(N)=O` showed an IC50 [2] of 710 nM and an IC50 [1] of 250 nM.
Compound `Cc1noc2c1-c1sc(C)c(C)c1C(c1ccc(Cl)cn1)=N[C@H]2CC(N)=O` has an IC50 [2] of 240 nM and an IC50 [1] of 72 nM.
For `Cc1noc2c1-c1sc(C)c(C)c1C(c1ccc(N)nc1)=N[C@H]2CC(N)=O`, the Stability (Plasma) was “Unstable”, the fraction unbound [3] was 0.006 and the inhibition at 10 µM (CYP3A4) was 20%. It also gave a microsomal CLint [4] of 18 µL/min/mg, a microsomal CLint [5] of 5.4 µL/min/mg and an IC50 [2] of 380 nM. For the same compound, the IC50 [1] was 73 nM.
